Earlier results, collected in paper PMC8763792, “Pharmacokinetic/Pharmacodynamic Based Breakpoints of Polymyxin B for Bloodstream Infections Caused by Multidrug-Resistant Gram-Negative Pathogens” (Frontiers in Pharmacology, 2022).
Like-named read-outs stand apart in the source and are kept apart here. Positions of bridges follow the written chain, without caps; N, C: chain ends. Non-standard residues stand in square brackets, D forms with d. Residues, ends and D or L forms follow the SMILES beside them. *: point of attachment. X1 = CC[C@H](C)CCCCC(=O)*; Dab = NCC[C@H](N)C(=O)O

What was measured:
P. aeruginosa = settings: 7,107 isolates, 45 nations, 1997-2016; ref Diekema et al., 2019
Source text: (§1) However, the success of this regimen will depend on regional susceptibility data. According to the SENTRY antimicrobial surveillance program for bloodstream infections (data collected from 45 nations including China between 1997 and 2016) ([Diekema et al., 2019]), the MIC90 of colistin for P. aeruginosa (7,107 isolates), A. baumannii or A. calcoaceticus ...

[1] = test system: A. baumannii or A. calcoaceticus; settings: 3,124 isolates, 45 nations, 1997-2016; ref Diekema et al., 2019
Source text: as §1

Enterobacteriaceae = settings: 54,476 isolates, 45 nations, 1997-2016; ref Diekema et al., 2019
Source text: as §1

[2] = critically-ill patients, ref Sandri et al., 2013, Nation et al., 2017
Method: Removal of the “susceptible” interpretation category for polymyxins by CLSI was driven primarily by lung infection data ([He et al., 2013]; [Landersdorfer et al., 2018]). […] For bloodstream infections, the average steady-state concentrations (C ss,avg) achieved with intravenously administered polymyxin B (0.45–3.38 mg/kg/day) or CMS (2–18 MIU/day) are 2–3 mg/L (polymyxin B and colistin) in critically-ill p ...

[3] = Method: The area under the unbound concentration-time curve over 24 h to the MIC ratio (fAUC0–24h/MIC) is the most predictive PK/PD index for polymyxins ([Tam et al., 2005]; [Bergen et al., 2008]; [Bergen et al., 2010]; [Cheah et al., 2015]; [Landersdorfer et al., 2018]). PK/PD targets of 1-log10 CFU and 2-log10 CFU reductions in colony forming units (CFU)/thigh were derived from dose-fractionation studies of polymyxin B (K. pneumoniae) and colistin (P. aeruginosa and A. baumannii) in murine thigh infection models (Supplementary Table S1; [Cheah et al., 2015]; [Landersdorfer et al., 2018]). Given poly ... || The recommended dose of intravenously administered polymyxin B throughout much of the world is 1.5–2.5 mg/kg/day with a loading dose of 2–2.5 mg/kg ([Tsuji et al., 2019]). In China, the only brand of polymyxin B currently available has a recommended intravenous dose of 50–100 mg/day (Polymyxin B for injection ([Daily Med, 2017]), equivalent to 0.83–1.66 mg/kg/day (0.42–0.83 mg/kg/12 h) for a 60 kg patient. Importantly, [Lakota et al. (2018)] proposed that for pathogens with MICs ≤2 mg/L, the target AUC0–24h,ss for polymyxin B should be 50–100 mg h/L. In our study, the polymyxin B AUC0–24h,ss a ...
[4] = test system: extensively-drug resistant Gram-negative bacteria; settings: polymyxin B-based regimens 100-200 mg/day, ≥5 days; bloodstream infection; ref Zhao et al., 2020
Source text: This is in agreement with othe ...

K. pneumoniae = settings: dash in Table S1 explained, ref Landersdorfer, C.B., 2018
Source text: Supplement DataSheet1.zip/Table 1.DOCX, table 1: Table S1.

colistin
MIC90 (P. aeruginosa): 2 mg/L | MIC90 [1]: 2 mg/L | MIC90 (Enterobacteriaceae): > 4 mg/L | Average steady-state concentration (Css,avg) ([2]; colistin after intravenous CMS 2-18 MIU/day): 2 to 3 mg/L

CC[C@H](C)CCCCC(=O)N[C@@H](CCN)C(=O)N[C@H](C(=O)N[C@@H](CCN)C(=O)N[C@H]1CCNC(=O)[C@H]([C@@H](C)O)NC(=O)[C@H](CCN)NC(=O)[C@H](CCN)NC(=O)[C@H](CC(C)C)NC(=O)[C@@H](Cc2ccccc2)NC(=O)[C@H](CCN)NC1=O)[C@@H](C)O [polymyxin B] (X1-[Dab]T[Dab][Dab][Dab][dF]L[Dab][Dab]T; lactam 4-C (inferred); N-terminus assumed)
Unbound fraction (f) in plasma ([3]; plasma, ref Sandri et al., 2013): 42% | Protein binding ([3]; ref Zavascki et al., 2008): 78.5–92.4% | 28-day all-cause mortality [4]: 41.0% | Clearance rate of microorganisms [4]: 65.2% | Overall effectiveness (cure or improvement) [4]: 59.0% | PK/PD target fAUC0-24h/MIC, 2-log10 CFU killing (K. pneumoniae): unable to produce a 2-log10 CFU decrease | Average steady-state concentration (Css,avg) ([2]; intravenous polymyxin B 0.45-3.38 mg/kg/day): 2 to 3 mg/L
